Results: patent US11773421B2, “Method for producing fructose-6-phosphate from dihydroxy acetone phosphate and glyceraldehyde-3-phosphate” (Global Bioenergies, priority 2018, dated 2023)

Tests used:
fructose bisphosphatase = fructose bisphosphatase (Escherichia coli, UniProt P0A993); assay: Impact of AMP concentration on fructose bisphosphatase activity; assay type: biochemical; conditions: AMP several concentrations; 1 mM F1,6bisP, 0.2 mg/ml FBP enzyme, 30° C., NADPH formation at 340 nm; FIG. 1
Description: (§1) A series of tests was conducted in order to determine if AMP has an inhibitory effect on the enzymatic activity of fructose-6-phosphate aldolase and/or fructose bisphosphatase. […] Chem Cat Chem, Wiley, 7:1871-1879 (2015).

FsaA A129S = molecular target: T1, FsaA A129S (Escherichia coli, UniProt P78055, A129S); assay: Impact of AMP concentration on fructose-6-phosphate aldolase activity of FsaA A129S; assay type: biochemical, E. coli; conditions: AMP several concentrations; 200 mM DHA, 3 mM D,L-G3P, 0.4 mg/ml FsaA A129S, 30° C., NADPH formation at 340 nm; FIG. 2
T1 construct: made in house; host or cells: E. coli BL21(DE3), ASKA collection plasmid
Description: as §1

T1 sequence (P78055 whole entry A129S): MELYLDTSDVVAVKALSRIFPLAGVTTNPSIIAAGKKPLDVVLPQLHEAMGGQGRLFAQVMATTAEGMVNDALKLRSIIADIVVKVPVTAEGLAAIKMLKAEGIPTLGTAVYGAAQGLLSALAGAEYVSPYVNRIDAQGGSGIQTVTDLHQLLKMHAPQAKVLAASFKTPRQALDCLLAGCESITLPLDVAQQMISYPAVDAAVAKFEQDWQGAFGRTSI
fructose bisphosphatase, sequence (P0A993 whole entry): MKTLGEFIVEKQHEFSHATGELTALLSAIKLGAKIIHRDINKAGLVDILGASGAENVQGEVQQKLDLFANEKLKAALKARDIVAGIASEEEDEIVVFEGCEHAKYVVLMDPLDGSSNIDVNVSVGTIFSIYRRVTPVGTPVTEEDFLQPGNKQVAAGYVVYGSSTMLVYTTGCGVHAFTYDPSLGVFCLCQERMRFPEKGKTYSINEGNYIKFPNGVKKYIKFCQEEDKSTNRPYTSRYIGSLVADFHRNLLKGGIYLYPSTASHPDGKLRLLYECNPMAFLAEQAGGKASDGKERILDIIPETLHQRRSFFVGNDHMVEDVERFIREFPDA

Nc1ncnc2c1ncn2[C@@H]1O[C@H](COP(=O)(O)O)[C@@H](O)[C@H]1O [AMP]
impact of AMP on fructose bisphosphatase activity (fructose bisphosphatase): strong inhibitory impact | inhibitory effect of AMP on fructose-6-phosphate aldolase activity (FsaA A129S): No inhibitory effect
